Measurements taken from US11311533B2, “Opioid receptor antagonist conjugate and use thereof” (SHANGHAI HANMAI BIO-PHARMA CO., LTD., priority 2016, dated 2022).
“And” between values parts separate entries of the source, which are not always exact repeats. Identical values can stand only once. Counter-ions that a name gives are not always drawn. Like-named read-outs stand apart in the source and are kept apart here.

Legend:
[1] = biological target: T1, OPRM1 (Mμ opioid receptor gene) receptor (Homo sapiens, UniProt P35372); experiment: cell-based; details: for inhibition at 10 µM: OPRM1, read-out: Inhibition rate (%) of highest concentration (mean ± standard deviation) (N = 2)
T1 sequence (P35372 whole entry): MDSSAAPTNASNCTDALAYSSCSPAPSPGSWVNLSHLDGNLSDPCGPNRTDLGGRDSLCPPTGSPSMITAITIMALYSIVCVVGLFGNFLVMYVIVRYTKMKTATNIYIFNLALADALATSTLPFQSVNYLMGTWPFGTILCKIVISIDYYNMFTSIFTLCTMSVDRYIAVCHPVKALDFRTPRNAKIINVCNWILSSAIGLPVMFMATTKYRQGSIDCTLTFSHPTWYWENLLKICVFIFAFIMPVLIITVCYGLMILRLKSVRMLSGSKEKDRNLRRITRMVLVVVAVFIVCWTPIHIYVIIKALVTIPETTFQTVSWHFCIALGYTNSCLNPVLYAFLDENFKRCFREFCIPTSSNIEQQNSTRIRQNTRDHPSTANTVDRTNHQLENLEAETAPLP
Experimental: (§1) Cell suspension was inoculated into a 384-well microplate at a density of 15,000 cells per well, and cultured in a 37° C./5% CO2 incubator for at least 18 hours before experiment.
(§2) Before the test, the conjugates to be tested was diluted with HBSS buffer (containing 20 mM HEPES) and prepared as 5× solution with a concentration five times of the test solution. […] The concentration of the corresponding control DMSO is 0.1%.
(§3) The protocol for preparing agonist detection: cells were inoculated into 384-well microplates, 20 μl of cell suspension per well (containing 15,000 cells); the plate was placed in 37° C./5% CO2 incubator to continue the culture; cells were taken out after 18 hours, and dye was added, 20 μl per well; the plate was incubated in 37° C./5% CO2 incubator for 1 hour and equilibrated at room temperature for 15 minutes; and 10 μl of 5× test solution of agonist was added to each well for RFU value detection.
(§4) The protocol for preparing inhibitor detection: cells were inoculated into 384-well microplates, 20 μl of cell suspension per well (containing 15,000 cells); the plate was placed in 37° C./5% CO2 incubator to continue the culture; cells were taken out after 18 hours; for the inhibitor detection, 20 μl of dye was added to the plate, and then 10 μl of prepared conjugate solution was added; the plate was incubated in 37° C./5% CO2 for 1 hour and equilibrate at room temperature for 15 minutes; 12.5 μl of 5× EC80 positive agonist was added for RFU value detection.
(§5) The 384-well microplate containing the conjugate solution (5× test concentration), cell plate and pipette tip box were placed in FLIPR (Molecule Devices), and the agonist detection program was run. The overall detection time of the instrument was 120 seconds. 10 μl of agonist was automatically added to the plate at the 21st second. […] (Molecule Devices), and the inhibitor detection program was run. The overall detection time of the instrument was 120 seconds. 12.5 μl of positive agonist was automatically added to the plate at the 21st second.

[2] = system: mice; experiment: Mouse hot plate analgesia experiment (antagonism of morphine analgesia, blood-brain barrier study); details: for Average Pain Threshold after Administration (s) Mean ± SD: 60 minutes after administration; for Passage through the blood-brain barrier (concluded from antagonism of the analgesic effect of morphine): mouse hot plate, conjugate subcutaneous after morphine by gavage; for Difference between the pain threshold before and after administration (significance): before vs 60 minutes after administration, Na1037 and Na1041: high-dose groups
Experimental: Six conjugates Na1021, Na1029, Na1045, Na1037, Na1041, and Na1049 were subjected to mouse hot plate analgesia experiments for four times, respectively. In each experiment, mice (JOINN Laboratories (Suzhou)) were randomly divided into four groups (eight per group): one blank control group, one morphine control group, and two other groups which were administered with morphine by gavage first, and then low dose and high dose of the conjugates were subcutaneously injected respectively. The mice were put on a hot plate (55±0.1) ° C. before administration, and the time was recorded immediately. The duration from the beginning on the hot plate to the first hind paw licking was recorded as the reaction time of heat-pain sensation (i.e., pain threshold, the unit is second (s)). The pain threshold was set as 100% analgesia if there was no hind paw licking in 60 seconds. It was recorded as 60 seconds when the time exceeded 60 seconds to prevent burn of foot. The mice were again put on a (55±0.1) ° C. hot plate 60 minutes after the administration of drug and the reaction time of heat-pain sensation was recorded. […] The value of the pain thresholds before and after administration was compared and the percentage of increase in pain threshold was calculated according to the following formula to determine the effect of drug on antagonizing morphine analgesia. Percentage of increase in pain threshold=[(average heat pain threshold after administration−average pain threshold before administration)/average pain threshold before administration]×100%

[3] = system: mice; experiment: Anti-constipation study: antagonizing the antidiarrheal effect of loperamide hydrochloride (castor oil diarrhea); assay type: in vivo
Experimental: The anti-constipation study experiment was completed by using the test of antagonizing the antidiarrheal effect of loperamide hydrochloride. The specific experiment process was: the mice were divided into groups randomly, eight mice each group, wherein one group was administered with 0.5 mL of castor oil by gavage, one group was administered with 2 mg/kg loperamide hydrochloride and 0.5 mL of castor oil by gavage, and conjugate test groups were respectively administered with Na1021 (300 nmol/kg), Na1029 (300 nmol/kg), Na1033 (300 nmol/kg) and Na1045 (600 nmol/kg) by gavage first, and then with 2 mg/kg loperamide and 0.5 mL castor oil by gavage.
The mice were divided into groups randomly, eight mice each group, wherein one group was administered with 0.5 mL of castor oil by gavage, one group was administered with 2 mg/kg loperamide and 0.5 mL castor oil by gavage, other groups were respectively administered with different doses of conjugate Na1029 first, then with 2 mg/kg loperamide hydrochloride and 0.5 mL castor oil by gavage.

[4] = biological target: T1, OPRM1 (Mμ opioid receptor gene) receptor
Experimental: as §1, §2, §3, §4, §5

[5] = 4 μmol/kg subcutaneous + Morphine by gavage
[6] = 20 μmol/kg subcutaneous + Morphine by gavage
[7] = Table 11: 500 μg/kg + Loperamide Hydrochloride + Castor Oil
[8] = Table 10: 300 nmol/kg by gavage + Loperamide Hydrochloride + Castor Oil

C=CCN1CC[C@]23c4c5ccc(O)c4O[C@H]2[C@@H](OCCOCCOCCOCCOCCOCCOCCOCCOC)CC[C@@]3(O)[C@H]1C5 [Nal049, mPEG8-(6-α-naloxol)-ether]
IC50 [1]: 1050 nM
inhibition at 10 µM [1]: 94.3 ± 5.39%
Average Pain Threshold before Administration (s) Mean ± SD ([2]; 4 μmol/kg + Morphine group): 14.00 ± 7.09 s
Percentage of Increase in Pain Threshold ([2]; 4 μmol/kg + morphine): 125.93%
Average Pain Threshold after Administration (s) Mean ± SD [2, 5]: 31.63 ± 10.04 s
Average Pain Threshold before Administration (s) Mean ± SD ([2]; 20 μmol/kg + Morphine group): 13.5 ± 5.07 s
Percentage of Increase in Pain Threshold ([2]; 20 μmol/kg + morphine): 91.70%
Average Pain Threshold after Administration (s) Mean ± SD [2, 6]: 25.88 ± 7.64 s
Passage through the blood-brain barrier (concluded from antagonism of the analgesic effect of morphine) [2]: cannot pass through the blood-brain barrier

O=C1CC[C@@]2(O)[C@H]3Cc4ccc(O)c5c4[C@@]2(CCN3CC2CC2)[C@H]1O5 [Naltrexone, naltrexone, reference compound]
Total Number of Diarrhea Times Six Hours after Administration [3, 7]: 14.00 ± 5.76

Oc1ccc2c3c1O[C@H]1[C@@H](OCCOCCOCCOCCOCCOCCOCCOCCOCCOCCO[C@H]4CC[C@@]5(O)[C@H]6Cc7ccc(O)c8c7[C@@]5(CCN6CC5CC5)[C@H]4O8)CC[C@@]4(O)[C@@H](C2)N(CC2CC2)CC[C@]314 [Nal033, PEG10-(6-α-naltrexol)2-ether]
IC50 [1]: 197 nM
inhibition at 10 µM [1]: 99.1 ± 1%
Total Number of Diarrhea Times Six Hours after Administration [3, 8]: 15.25 ± 4.13

C=CCN1CCC23c4c5ccc(O)c4OC2C(OCCOCCOCCOCCOCCOCCOC)CCC3(O)C1C5 (stereo not drawn) [Nal046, mPEG6-(6-β-naloxol)-ether]
IC50 ([4]; CHO-K1/Gα15/OPRM1 cells, inhibitor detection against EC80 positive agonist, RFU): 3840 nM
Inhibition rate (%) of highest concentration (mean ± standard deviation) (N = 2) ([4]; highest concentration 10000 nM): 79.55 ± 5.73%

CN1CC[C@]23c4c5ccc(O)c4O[C@H]2[C@@H](O)C=C[C@H]3[C@H]1C5 [Morphine, morphine, reference compound]
Average Pain Threshold after Administration (s) Mean ± SD ([2]; morphine control group, cut-off 60 s): 53.25 ± 10.96 s and 52.00 ± 9.67 s and 38.5 ± 15.58 s and 39.00 ± 17.25 s
Average Pain Threshold before Administration (s) Mean ± SD ([2]; morphine control group, hot plate 55 °C): 19.25 ± 5.57 s and 20.38 ± 3.93 s and 20.88 ± 4.91 s and 15.12 ± 6.38 s

COCCOCCOCCOCCOCCOCCO[C@H]1CC[C@@]2(O)[C@H]3Cc4ccc(O)c5c4[C@@]2(CCN3CC2CC2)[C@H]1O5 [Nal037, mPEG6-(6-α-naltrexol)-ether]
IC50 [1]: 225 nM
inhibition at 10 µM [1]: 100.6 ± 0.34%
Average Pain Threshold before Administration (s) Mean ± SD ([2]; 4 μmol/kg + Morphine group): 19.38 ± 5.21 s
Percentage of Increase in Pain Threshold ([2]; 4 μmol/kg + morphine): 62.54%
Average Pain Threshold after Administration (s) Mean ± SD [2, 5]: 31.50 ± 11.83 s
Average Pain Threshold before Administration (s) Mean ± SD ([2]; 20 μmol/kg + Morphine group): 20.5 ± 3.93 s
Percentage of Increase in Pain Threshold ([2]; 20 μmol/kg + morphine): 1.85%
Average Pain Threshold after Administration (s) Mean ± SD [2, 6]: 20.88 ± 5.87 s
Difference between the pain threshold before and after administration (significance) [2]: not significant
Passage through the blood-brain barrier (concluded from antagonism of the analgesic effect of morphine) [2]: can pass through the blood-brain barrier

Oc1ccc2c3c1O[C@H]1[C@@H](OCCOCCOCCOCCO[C@H]4CC[C@@]5(O)[C@H]6Cc7ccc(O)c8c7[C@@]5(CCN6CC5CC5)[C@H]4O8)CC[C@@]4(O)[C@@H](C2)N(CC2CC2)CC[C@]314 [Nal021, PEG4-(6-α-naltrexol)2-ether]
IC50 [1]: 229 nM
inhibition at 10 µM [1]: 100.3 ± 0.56%
Average Pain Threshold before Administration (s) Mean ± SD ([2]; 4.36 μmol/kg + Morphine group): 20.63 ± 7.07 s
Percentage of Increase in Pain Threshold ([2]; 4.36 μmol/kg + morphine): 172.66%
Average Pain Threshold after Administration (s) Mean ± SD ([2]; 4.36 μmol/kg subcutaneous + Morphine by gavage): 56.25 ± 10.61 s
Average Pain Threshold before Administration (s) Mean ± SD ([2]; 21.8 μmol/kg + Morphine group): 18.63 ± 4.60 s
Percentage of Increase in Pain Threshold ([2]; 21.8 μmol/kg + morphine): 220.72%
Average Pain Threshold after Administration (s) Mean ± SD ([2]; 21.8 μmol/kg subcutaneous + Morphine by gavage): 59.75 ± 0.71 s
Passage through the blood-brain barrier (concluded from antagonism of the analgesic effect of morphine) [2]: cannot pass through the blood-brain barrier

Oc1ccc2c3c1O[C@H]1[C@H](OCCOCCOCCOCCOCCOCCO[C@@H]4CC[C@@]5(O)[C@H]6Cc7ccc(O)c8c7[C@@]5(CCN6CC5CC5)[C@H]4O8)CC[C@@]4(O)[C@@H](C2)N(CC2CC2)CC[C@]314 [Nal026, PEG6-(6-β-naltrexol)2-ether]
IC50 [1]: 183 nM
inhibition at 10 µM [1]: 100.5 ± 0.26%

COCCOCCOCCOCCOCCOCCOCCOCCO[C@H]1CC[C@@]2(O)[C@H]3Cc4ccc(O)c5c4[C@@]2(CCN3CC2CC2)[C@H]1O5 [Nal041, mPEG8-(6-α-naltrexol)-ether]
IC50 [1]: 210 nM
inhibition at 10 µM [1]: 95.8 ± 1.86%
Average Pain Threshold before Administration (s) Mean ± SD ([2]; 4 μmol/kg + Morphine group): 14.25 ± 1.75 s
Percentage of Increase in Pain Threshold ([2]; 4 μmol/kg + morphine): 170.18%
Average Pain Threshold after Administration (s) Mean ± SD [2, 5]: 38.5 ± 14.74 s
Average Pain Threshold before Administration (s) Mean ± SD ([2]; 20 μmol/kg + Morphine group): 16.88 ± 6.79 s
Percentage of Increase in Pain Threshold ([2]; 20 μmol/kg + morphine): 30.33%
Average Pain Threshold after Administration (s) Mean ± SD [2, 6]: 22.00 ± 5.12 s
Difference between the pain threshold before and after administration (significance) [2]: not significant
Passage through the blood-brain barrier (concluded from antagonism of the analgesic effect of morphine) [2]: can pass through the blood-brain barrier

CN(C)C(=O)C(CCN1CCC(O)(c2ccc(Cl)cc2)CC1)(c1ccccc1)c1ccccc1 [Loperamide Hydrochloride, loperamide hydrochloride, reference compound]
Total Number of Diarrhea Times Six Hours after Administration ([3]; Table 10: 2 mg/kg loperamide hydrochloride + 0.5 mL castor oil by gavage, no conjugate): 10.88 ± 7.14
Total Number of Diarrhea Times Six Hours after Administration ([3]; Table 11: 2 mg/kg loperamide + 0.5 mL castor oil by gavage, no conjugate): 5.75 ± 3.69

Oc1ccc2c3c1O[C@H]1[C@@H](OCCOCCOCCO[C@H]4CC[C@@]5(O)[C@H]6Cc7ccc(O)c8c7[C@@]5(CCN6CC5CC5)[C@H]4O8)CC[C@@]4(O)[C@@H](C2)N(CC2CC2)CC[C@]314 [Nal053, PEG3-(6-α-naltrexol)2-ether]
IC50 [1]: 250 nM
inhibition at 10 µM [1]: 101.8 ± 0.97%

Oc1ccc2c3c1O[C@H]1[C@@H](OCCOCCOCCOCCOCCOCCOCCOCCO[C@H]4CC[C@@]5(O)[C@H]6Cc7ccc(O)c8c7[C@@]5(CCN6CC5CC5)[C@H]4O8)CC[C@@]4(O)[C@@H](C2)N(CC2CC2)CC[C@]314 [Nal029, PEG8-(6-α-naltrexol)2-ether]
IC50 [1]: 161 nM
inhibition at 10 µM [1]: 98 ± 3.09%
Antagonism of the antidiarrheal effect of loperamide hydrochloride compared with the model control group ([3]; Example 9, dose-dependent): significantly antagonize
Total Number of Diarrhea Times Six Hours after Administration [3, 8]: 20.88 ± 5.82
Total Number of Diarrhea Times Six Hours after Administration ([3]; Table 10: 300 nmol/kg by gavage + Loperamide Hydrochloride + Castor Oil, listed as Na1029): relatively high
Total Number of Diarrhea Times Six Hours after Administration ([3]; Table 11: 10 μg/kg + Loperamide Hydrochloride + Castor Oil): 5.25 ± 7.42
Total Number of Diarrhea Times Six Hours after Administration ([3]; Table 11: 30 μg/kg + Loperamide Hydrochloride + Castor Oil): 6.50 ± 5.88
Total Number of Diarrhea Times Six Hours after Administration ([3]; Table 11: 100 μg/kg + Loperamide Hydrochloride + Castor Oil): 12.13 ± 5.67
Total Number of Diarrhea Times Six Hours after Administration [3, 7]: 18.25 ± 3.99
EC50 for antagonizing the antidiarrheal effect of loperamide hydrochloride ([3]; dose-response in mice, Table 11 and FIG. 1): ~0.086 mg/kg
Average Pain Threshold before Administration (s) Mean ± SD ([2]; 3.66 μmol/kg + Morphine group): 20.00 ± 5.71 s
Percentage of Increase in Pain Threshold ([2]; 3.66 μmol/kg + morphine): 200.00%
Average Pain Threshold after Administration (s) Mean ± SD ([2]; 3.66 μmol/kg subcutaneous + Morphine by gavage): 60.00 ± 0 s
Average Pain Threshold before Administration (s) Mean ± SD ([2]; 18.28 μmol/kg + Morphine group): 22.13 ± 7.26 s
Percentage of Increase in Pain Threshold ([2]; 18.28 μmol/kg + morphine): 155.31%
Average Pain Threshold after Administration (s) Mean ± SD ([2]; 18.28 μmol/kg subcutaneous + Morphine by gavage): 56.5 ± 9.90 s
Passage through the blood-brain barrier (concluded from antagonism of the analgesic effect of morphine) [2]: cannot pass through the blood-brain barrier

Oc1ccc2c3c1O[C@H]1[C@@H](OCCOCCOCCOCCOCCOCCO[C@H]4CC[C@@]5(O)[C@H]6Cc7ccc(O)c8c7[C@@]5(CCN6CC5CC5)[C@H]4O8)CC[C@@]4(O)[C@@H](C2)N(CC2CC2)CC[C@]314 [Nal025, PEG6-(6-α-naltrexol)2-ether]
IC50 [1]: 185 nM
inhibition at 10 µM [1]: 100.6 ± 0.48%
